Results as given in the NIST ThermoML archive (doi:10.1021/acs.jced.6b00201).
Numbers after ± are expanded uncertainties.

Columns and labels:
[1] = for Glass transition temperature / Triple point temperature: DSC; for Normal melting temperature: visual observation
[2] = Molar enthalpy of transition or fusion; details: DSC

Normal melting temperature ([1]; Crystal) | SMILES | Glass transition temperature [1] | Molar enthalpy of transition or fusion ([2]; Crystal 1) | Triple point temperature ([1]; Crystal) | other results
172.69 ± 2 °C | NNC(=O)c1ccncc1 [isonicotinic acid hydrazide] | – | – | – | –
188.27 ± 0.16 °C | NC(=O)c1cnccn1 [pyrazinecarboxamide] | – | – | – | –

Second part, the compound before the results:

SMILES | Normal melting temperature ([1]; Crystal) | Glass transition temperature [1] | Molar enthalpy of transition or fusion ([2]; Crystal 1) | Triple point temperature ([1]; Crystal) | other results
CCCCn1cc[n+](C)c1.F[B-](F)(F)F [1-butyl-3-methylimidazolium tetrafluoroborate] | – | -83.90 ± 8 °C | – | – | –
CCCCn1cc[n+](C)c1.F[P-](F)(F)(F)(F)F [1-butyl-3-methylimidazolium hexafluorophosphate] | – | -74.28 ± 1.2 °C | 2.73 ± 0.0837 kcal/mol | – | Triple point temperature ([1]; Crystal 1): 286.46 ± 1.2 K
CCCCn1cc[n+](C)c1.O=S(=O)([O-])C(F)(F)F [1-butyl-3-methylimidazolium trifluoromethanesulfonate] | – | – | – | 291.46 ± 1.2 K | Molar enthalpy of transition or fusion ([2]; Crystal): 4.82 ± 0.141 kcal/mol
CCCCCCCCn1cc[n+](C)c1.O=S(=O)([O-])C(F)(F)F [1-octyl-3-methylimidazolium trifluoromethanesulfonate] | – | – | 5.76 ± 0.165 kcal/mol | 283.51 ± 1.2 K | –
